Legend:
Format in all cases: in vivo
[1] = test system: Beet Armyworm (BAW) (Spodoptera exigua); assay: Bioassay on Beet Armyworm (BAW), 128-well diet tray assay; conditions: Spodoptera exigua, 168 h; 50 μg/cm2 on artificial diet, second instar larvae, five to seven days; read-out: Rating BAW (% Control (or Mortality))
Method in brief: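 Spodoptera exigua larvae on diet trays held 5–7 days at 25 °C, 14:10 light-dark. Percent mortality scored per well and averaged over eight wells.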

[2] = test system: Corn Earworm (CEW) (Helicoverpa zea); assay: Bioassay on Corn Earworm (CEW), 128-well diet tray assay; conditions: Helicoverpa zea, 168 h, second instar larvae, five to seven days; for mortality at 50 µg/cm2: 50 μg/cm2 on artificial diet, read-out: Rating CEW (% Control (or Mortality)); for mortality at 0.5 µg/cm2: 0.5 μg/cm2 on artificial diet, read-out: Rating CEW (% Control (or Mortality)), *Tested at 0.5 μg/cm2
Method in brief: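 Helicoverpa zea larvae in 128-well diet trays, held at 25 °C, 14:10 light-dark for five to seven days. Percent mortality scored per well and averaged over eight wells.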

[3] = test system: Yellow Fever Mosquito (YFM) (Aedes aegypti); conditions: about 1 day-old larvae, scored on mortality after 3 days
Protocol: Certain molecules disclosed in this document were tested against YFM using procedures described in the following paragraph. In the reporting of the results, the “YFM Rating Table” was used (See Table Section).
Master plates containing 400 μg of a molecule dissolved in 100 μL of dimethyl sulfoxide (DMSO) (equivalent to a 4000 ppm solution) are used. A master plate of assembled molecules contains 15 μL per well. To this plate, 135 μL of a 90:10 water:acetone mixture is added to each well. A robot (Biomek® NXP Laboratory Automation Workstation) is programmed to dispense 15 μL aspirations from the master plate into an empty 96-well shallow plate (“daughter” plate). There are 6 reps (“daughter” plates) created per master. The created daughter plates are then immediately infested with YFM larvae.
The day before plates are to be treated, mosquito eggs are placed in Millipore water containing liver powder to begin hatching (4 g. into 400 ml). After the daughter plates are created using the robot, they are infested with 220 μL of the liver powder/larval mosquito mixture (about 1 day-old larvae). After plates are infested with mosquito larvae, a non-evaporative lid is used to cover the plate to reduce drying. Plates are held at room temperature for 3 days prior to grading. After 3 days, each well is observed and scored based on mortality.

[4] = test system: Green Peach Aphid (GPA) (Myzus persicae); assay: Bioassay on Green Peach Aphid (GPA), foliar spray on cabbage seedlings; conditions: Myzus persicae, 72 h; 200 ppm foliar spray on cabbage seedlings, graded after three days, Abbott corrected % control; read-out: Rating GPA (% Control (or Mortality))
Protocol: Certain molecules disclosed in this document were tested against GPA using procedures described in the following example. In the reporting of the results, the “GPA Rating Table” was used (See Table Section).
Cabbage seedlings grown in 3-inch pots, with 2-3 small (3-5 cm) true leaves, were used as test substrate. The seedlings were infested with 20-50 GPA (wingless adult and nymph stages) one day prior to chemical application. Four pots with individual seedlings were used for each treatment. Test compounds (2 mg) were dissolved in 2 mL of acetone/MeOH (1:1) solvent, forming stock solutions of 1000 ppm test compound. The stock solutions were diluted 5× with 0.025% Tween 20 in H2O to obtain the solution at 200 ppm test compound. A hand-held aspirator-type sprayer was used for spraying a solution to both sides of […] leaves until runoff. Reference plants (solvent check) were sprayed with the diluent only containing 20% by volume of acetone/MeOH (1:1) solvent. Treated plants were held in a holding room for three days at approximately 25° C. and ambient relative humidity (RH) prior to grading. Evaluation was conducted by counting the number of live aphids per plant under a microscope. Percent Control was measured by using Abbott's correction formula (W.S. Abbott, “A Method of Computing the Effectiveness of an Insecticide” J. Econ. Entomol. 18 (1925), pp. 265-267) as follows.
Corrected % Control=100*(X−Y)/X • where • X=No. of live aphids on solvent check plants and • Y=No. of live aphids on treated plants

Row | SMILES | mortality at 50 µg/cm2 [1] [%] | mortality at 50 µg/cm2 [2] [%] | Rating YFM (% Control (or Mortality)) [3] | mortality at 200 ppm [4] [%] | mortality at 0.5 µg/cm2 [2] [%]
1 | Cc1cccc(C)c1N/C(S)=C(\C#N)C(=O)Nc1ccc(-c2ncn(-c3ccc(OC(F)(F)F)cc3)n2)cc1 [Molecule A28, (Z)-2-Cyano-3-mercapto-3-((2,6-dimethylphenyl)amino)-N-(4-(1-(4-(trifluoromethoxy)phenyl)-1H-1,2,4-triazol-3-yl)phenyl)acrylamide] | 0 | 50 to 100 | D (No activity noticed in this bioassay) |  | 
2 | CCc1ccccc1N1C(=O)CS/C1=N\C(=O)Nc1ccc(-c2ncn(-c3ccc(OC(F)(F)F)cc3)n2)cc1 [Molecule A35] | 50 to 100 | 50 to 100 | A (80-100) | 0 | 
3 | Cc1cccc(C)c1N1C(=O)C(C)(C)S/C1=N\C(=O)Nc1ccc(-c2ncn(-c3ccc(OC(F)(F)F)cc3)n2)cc1 [Molecule A126] | 50 to 100 | 50 to 100 | A (80-100) | 0 | 
4 | COc1ccc(N2C(=O)CS/C2=N\C(=O)Nc2ccc(-c3ncn(-c4ccc(OC(F)(F)F)cc4)n3)cc2)c(C)c1 [Molecule A110] | 50 to 100 |  | A (80-100) | 0 | 50 to 100
5 | Cc1cccc(C)c1N/C(=N/C(=O)Nc1ccc(-c2ncn(-c3ccc(C(F)(F)F)cc3)n2)cc1)SCOC(=O)C(C)C [Molecule A3, (E)-(N′-(2,6-Dimethylphenyl)-N-(4-(1-(4-(trifluoromethyl)phenyl)-1H-1,2,4-triazol-3-yl)phenylcarbamoyl)carbamimidoylthio) methyl isobutyrate] | 50 to 100 | 50 to 100 | A (80-100) | 0 | 
6 | CC(C)c1cccc(Cl)c1N1C(=O)CS/C1=N\C(=O)Nc1ccc(-c2ncn(-c3ccc(OC(F)(F)F)cc3)n2)cc1 [Molecule A85] | 50 to 100 |  | A (80-100) |  | 50 to 100
7 | CCc1ccccc1N/C(S)=N/C(=O)Nc1ccc(-c2ncn(-c3ccc(OC(F)(F)F)cc3)n2)cc1 [Molecule A46] | 50 to 100 | 50 to 100 | A (80-100) | 0 to 80 | 
8 | Cc1cc(-c2ncn(-c3ccc(OC(F)(F)F)cc3)n2)ccc1NC(=O)/N=C(\S)Nc1ccccc1C(C)C [Molecule A122] | 50 to 100 |  | A (80-100) |  | 50 to 100
9 | Cc1cccc(C)c1N/C(=N/C(=O)Nc1ccc(-c2ncn(-c3ccc(OC(F)(F)F)cc3)n2)cc1)SCOC(=O)C(C)C [Molecule A4, (E)-(N′-(2,6-Dimethylphenyl)-N-(4-(1-(4-(trifluoromethyoxy)phenyl)-1H-1,2,4-triazol-3-yl)phenylcarbamoyl)carbamimidoylthio)methyl isobutyrate] | 50 to 100 | 50 to 100 | A (80-100) | 0 to 80 | 
10 | CCC(C)c1ccccc1N1C(=O)CS/C1=N\C(=O)Nc1ccc(-c2ncn(-c3ccc(OC(F)(F)F)cc3)n2)cc1 (stereo not shown) [Molecule A18, (Z)-1-(3-(2-(sec-butyl)phenyl)-4-oxothiazolidin-2-ylidene)-3-(4-(1-(4-(trifluoromethoxy)phenyl)-1H-1,2,4-triazol-3-yl)phenyl)urea] | 50 to 100 | 50 to 100 | A (80-100) |  | 
11 | Cc1cccc(C)c1N1C(=O)CS/C1=N\C(=O)Nc1ccc(-c2ncn(-c3ccc(OC(F)(F)F)cc3)n2)cc1 [Molecule A14, (Z)-1-(3-(2,6-dimethylphenyl)-4-oxothiazolidin-2-ylidene)-3-(4-(1-(4-(trifluoromethoxy)phenyl)-1H-1,2,4-triazol-3-yl)phenyl)urea] | 50 to 100 | 50 to 100 | A (80-100) | 0 to 80 | 
12 | Cc1ccccc1N1C(=O)CS/C1=N\C(=O)Nc1ccc(-c2ncn(-c3ccc(OC(F)(F)F)cc3)n2)cc1 [Molecule A65] | 50 to 100 |  | A (80-100) |  | 50 to 100
13 | COc1ccc(N/C(O)=C/C(=O)Nc2ccc(-c3ncn(-c4ccc(OC(F)(F)F)cc4)n3)cc2)c(C(C)C)c1 [Molecule A34, (Z)-3-hydroxy-3-(2-isopropyl-4-methoxyphenylamino)-N-(4-(1-(4-(trifluoromethoxy)phenyl)-1H-1,2,4-triazol-3-yl)phenyl)acrylamide] | 50 to 100 | 50 to 100 | A (80-100) | 0 | 
14 | COc1cc(C)c(-n2c(C)cs/c2=N\C(=O)Nc2ccc(-c3ncn(-c4ccc(OC(F)(F)F)cc4)n3)cc2)c(C)c1 [Molecule A44] | 50 to 100 | 50 to 100 | A (80-100) | 0 to 80 | 
15 | COc1cc(C)c(N/C(=N/C(=O)Nc2ccc(-c3ncn(-c4ccc(OC(F)(F)F)cc4)n3)cc2)SCOC(=O)C(C)C)c(C)c1 [Molecule A7, (E)-(N′-(2,6-Dimethyl-4-methoxyphenyl)-N-(4-(1-(4-(trifluoromethyoxy)phenyl)-1H-1,2,4-triazol-3-yl)phenylcarbamoyl)carbamimidoylthio)methyl isobutyrate] | 50 to 100 | 50 to 100 |  | 0 to 80 | 
16 | Cc1ccc(N2C(=O)CS/C2=N\C(=O)Nc2ccc(-c3ncn(-c4ccc(OC(F)(F)F)cc4)n3)cc2)c(Cl)c1 [Molecule A77] | 50 to 100 |  | B (More than 0-Less than 80) |  | 50 to 100
17 | Cc1cc(-c2ncn(-c3ccc(OC(F)(F)F)cc3)n2)ccc1NC(=O)/N=C1\SCC(=O)N1c1ccccc1C(C)C [Molecule A123, (Z)-1-(3-(2-isopropylphenyl)-4-oxothiazolidin-2-ylidene)-3-(2-methyl-4-(1-(4-(trifluoromethoxy)phenyl)-1H-1,2,4-triazol-3-yl)phenyl)urea] | 50 to 100 |  | A (80-100) |  | 50 to 100
18 | CCCc1ccccc1N1C(=O)CS/C1=N\C(=O)Nc1ccc(-c2ncn(-c3ccc(OC(F)(F)F)cc3)n2)cc1 [Molecule A69] | 50 to 100 |  | A (80-100) |  | 50 to 100
19 | Cc1ccccc1N/C(S)=N/C(=O)Nc1ccc(-c2ncn(-c3ccc(OC(F)(F)F)cc3)n2)cc1 [Molecule A80] | 50 to 100 | 50 to 100 | B (More than 0-Less than 80) |  | 
20 | COc1ccc(N/C(=N\C(=O)Nc2ccc(-c3ncn(-c4ccc(OC(F)(F)F)cc4)n3)cc2)SCOC(=O)C(C)C)cc1 [Molecule A62] | 50 to 100 | 50 to 100 | A (80-100) | 0 | 
21 | COc1ccc(N/C(=N/C(=O)Nc2ccc(-c3ncn(-c4ccc(C(F)(F)F)cc4)n3)cc2)SC)c(C)c1 [Molecule A2, (Z)-Methyl N-(4-methoxy-2-methylphenyl)-N′-((4-(1-(4-(trifluoromethyl)phenyl)-1H-1,2,4-triazol-3-yl)phenyl)carbamoyl)carbamimidothioate] | 50 to 100 | 50 to 100 |  | 0 | 

— patent US20150196033A1, “PESTICIDAL COMPOSITIONS AND PROCESSES RELATED THERETO” (priority 2012, published 2015)
